Patent US8946215B2, “Hydroxy-substituted imidazo[1,2-a]pyridinecarboxamides and their use” (Bayer Pharma Aktiengesellschaft, priority 2012, dated 2015)

These compounds were tested against T1, recombinant guanylate cyclase reporter cell line (Rattus norvegicus, UniProt P19686+P20595) (assay: Action on recombinant guanylate cyclase reporter cell line). Settings: in some cases mean values obtained from individual determinations.
T1 construct: expressed in transfected cells
T1 sequence (P20595 1-619): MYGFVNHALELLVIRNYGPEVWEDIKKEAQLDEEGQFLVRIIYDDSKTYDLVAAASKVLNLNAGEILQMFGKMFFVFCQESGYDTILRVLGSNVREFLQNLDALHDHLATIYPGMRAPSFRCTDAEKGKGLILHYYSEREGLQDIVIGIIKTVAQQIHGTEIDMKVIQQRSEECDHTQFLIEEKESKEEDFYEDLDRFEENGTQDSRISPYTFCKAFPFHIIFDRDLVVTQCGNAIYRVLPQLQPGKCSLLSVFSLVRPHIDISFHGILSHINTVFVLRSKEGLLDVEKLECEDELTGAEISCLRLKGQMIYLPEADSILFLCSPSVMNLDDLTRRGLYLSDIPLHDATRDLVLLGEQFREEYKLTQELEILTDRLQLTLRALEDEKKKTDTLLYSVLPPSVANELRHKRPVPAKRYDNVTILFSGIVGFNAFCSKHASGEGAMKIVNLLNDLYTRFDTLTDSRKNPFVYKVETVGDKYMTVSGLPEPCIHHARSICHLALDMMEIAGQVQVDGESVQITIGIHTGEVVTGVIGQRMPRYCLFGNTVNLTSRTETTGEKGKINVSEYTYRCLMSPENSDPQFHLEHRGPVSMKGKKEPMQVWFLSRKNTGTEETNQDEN
T1 sequence (P19686 1-690): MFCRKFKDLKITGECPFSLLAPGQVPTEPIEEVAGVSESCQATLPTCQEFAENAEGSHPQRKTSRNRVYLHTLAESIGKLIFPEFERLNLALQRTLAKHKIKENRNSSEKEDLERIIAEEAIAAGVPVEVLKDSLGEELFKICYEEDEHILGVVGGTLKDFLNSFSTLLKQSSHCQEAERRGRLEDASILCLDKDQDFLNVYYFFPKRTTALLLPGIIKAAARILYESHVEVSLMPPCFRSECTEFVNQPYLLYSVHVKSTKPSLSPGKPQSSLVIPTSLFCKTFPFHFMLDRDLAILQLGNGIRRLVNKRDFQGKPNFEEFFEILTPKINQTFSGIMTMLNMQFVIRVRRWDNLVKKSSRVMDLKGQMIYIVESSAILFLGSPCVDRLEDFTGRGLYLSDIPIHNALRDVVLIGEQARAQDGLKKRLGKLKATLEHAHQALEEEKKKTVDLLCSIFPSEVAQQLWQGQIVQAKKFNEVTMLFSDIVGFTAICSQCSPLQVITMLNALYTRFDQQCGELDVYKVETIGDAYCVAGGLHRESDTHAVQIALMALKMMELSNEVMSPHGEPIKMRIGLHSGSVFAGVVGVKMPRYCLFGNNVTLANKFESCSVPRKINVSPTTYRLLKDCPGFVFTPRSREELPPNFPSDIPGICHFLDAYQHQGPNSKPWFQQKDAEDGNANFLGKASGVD
Assay type: cell-based
Outline: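 Cell-based reporter assay with recombinant guanylate cyclase expressed in a reporter cell line, per a published method. Activity reported as minimal effective concentration (MEC), in some cases as the mean of individual determinations.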

Structure (SMILES) | MEC (minimal effective concentration) [µM]
CCCC[C@H](CO)NC(=O)c1c(C)nc2c(OCc3cccc(Cl)c3Cl)cccn12 [Example 9] | 0.5
CCCC[C@H](CO)NC(=O)c1c(C)nc2c(OCc3cccc4c3OC(F)(F)O4)cccn12 [Example 12] | 3.0
CCCC[C@H](CO)NC(=O)c1c(C)nc2c(OCc3c(C)cccc3C)cccn12 [Example 13] | 3.0
CCCC[C@H](CO)NC(=O)c1c(C)nc2c(OCc3cccc(C(F)(F)F)c3F)cccn12 [Example 14] | 3.0
CCCC[C@H](CO)NC(=O)c1c(C)nc2c(OCc3c(F)cc(F)cc3F)cccn12 [Example 15, N-[(2R)-1-Hydroxyhexan-2-yl]-2-methyl-8-[(2,4,6-trifluorobenzyl)oxy]imidazo[1,2-a]pyridine-3-carboxamide] | 0.1
Cc1nc2c(OCc3c(F)cccc3F)cccn2c1C(=O)N[C@H]1CCC[C@@H]1O [Example 19] | 1.0
Cc1nc2c(OCc3c(F)cccc3F)cccn2c1C(=O)NC(C)(C)[C@H](C)O [Example 20] | 1.0
Cc1nc2c(OCc3c(F)cccc3F)cccn2c1C(=O)NCCO [Example 21] | 1.0
Cc1nc2c(OCc3c(F)cccc3F)cccn2c1C(=O)NCCCO [Example 22] | 1.0
Cc1nc2c(OCc3c(F)cccc3F)cccn2c1C(=O)NCCCCO [Example 23] | 0.3
Cc1nc2c(OCc3c(F)cccc3F)cccn2c1C(=O)NCCOCCO [Example 24] | 1.0
CSCC[C@H](CO)NC(=O)c1c(C)nc2c(OCc3c(F)cccc3F)cccn12 [Example 25] | 0.1
Cc1nc2c(OCc3c(F)cccc3F)cccn2c1C(=O)NCC1CCCC[C@H]1O (stereo partly drawn) [Example 27] | 0.3
Cc1nc2c(OCc3c(F)cccc3F)cccn2c1C(=O)NCCC(C)O (stereo not drawn) [Example 28] | 0.65
Cc1nc2c(OCc3c(F)cccc3F)cccn2c1C(=O)N[C@@H](CO)C(C)C [Example 29] | 0.1
CCC(O)CNC(=O)c1c(C)nc2c(OCc3c(F)cccc3F)cccn12 (stereo not drawn) [Example 30] | 0.3
Cc1nc2c(OCc3c(F)cccc3F)cccn2c1C(=O)NC1(CO)CCCC1 [Example 31] | 1.0
Cc1nc2c(OCc3c(F)cccc3F)cccn2c1C(=O)NC[C@@H](O)c1ccccc1 [Example 32] | 1.0
Cc1nc2c(OCc3c(F)cccc3F)cccn2c1C(=O)NC[C@H](O)c1ccccc1 [Example 33] | 0.3
Cc1nc2c(OCc3c(F)cccc3F)cccn2c1C(=O)NC(C)(C)CO [Example 34] | 0.3
Cc1nc2c(OCc3c(F)cccc3F)cccn2c1C(=O)N[C@@H](CO)C(C)(C)C [Example 35] | 0.3
Cc1nc2c(OCc3c(F)cccc3F)cccn2c1C(=O)N[C@@H]1CCC[C@H]1O [Example 36] | 0.1
Cc1nc2c(OCc3c(F)cccc3F)cccn2c1C(=O)N[C@@H]1CCC[C@@H]1O [Example 37] | 0.3
Cc1nc2c(OCc3c(F)cccc3F)cccn2c1C(=O)N[C@@H](CO)Cc1ccccc1 [Example 38] | 0.3
Cc1nc2c(OCc3c(F)cccc3F)cccn2c1C(=O)N[C@H]1c2ccccc2C[C@H]1O [Example 40, 8-[(2,6-difluorobenzyl)oxy]-N-[(1S,2R)-2-hydroxy-2,3-dihydro-1H-inden-1-yl]-2-methylimidazo[1,2-a]pyridine-3-carboxamide] | 0.1
Cc1nc2c(OCc3c(F)cccc3F)cccn2c1C(=O)NCC(C)(C)CO [Example 41, 8-[(2,6-difluorobenzyl)oxy]-N-(3-hydroxy-2,2-dimethylpropyl)-2-methylimidazo[1,2-a]-pyridine-3-carboxamide] | 3.0
Cc1nc2c(OCc3ccccc3)cccn2c1C(=O)N[C@@H](C)CO [Example 46, 8-(Benzyloxy)-N-[(2S)-1-hydroxypropan-2-yl]-2-methylimidazo[1,2-a]pyridine-3-carboxamide] | 3.0
Cc1nc2c(OCc3cccc(Cl)c3Cl)cccn2c1C(=O)NCCC1(O)CCCC1 [Example 47, 8-[(2,3-dichlorobenzyl)oxy]-N-[2-(1-hydroxycyclopentyl)ethyl]-2-methylimidazo[1,2-a]-pyridine-3-carboxamide] | 0.3
Cc1nc2c(OCc3ccccc3)cccn2c1C(=O)NCCC1(O)CCCC1 [Example 48, 8-(benzyloxy)-N-[2-(1-hydroxycyclopentyl)ethyl]-2-methylimidazo[1,2-a]pyridine-3-carboxamide] | 1.0

Second part, the compound after the results:

MEC (minimal effective concentration) [µM] | Structure (SMILES)
0.3 | CCCC[C@H](CO)NC(=O)c1c(C)nc2c(OCc3cccc(F)c3F)cccn12 [Example 10]
1.5 | CCCC[C@H](CO)NC(=O)c1c(C)nc2c(OCc3cccc(C)c3F)cccn12 [Example 11]
3.0 | CC[C@H](CO)NC(=O)c1c(C)nc2c(OCc3ccccc3)cccn12 [Example 17, 8-(Benzyloxy)-N-[(2R)-1-hydroxybutan-2-yl]-2-methylimidazo[1,2-a]pyridine-3-carboxamide]
0.1 | CCC[C@H](CO)NC(=O)c1c(C)nc2c(OCc3c(F)cccc3F)cccn12 [Example 18]
2.0 | Cc1nc2c(OCc3c(F)cccc3F)cccn2c1C(=O)NC(CO)CO [Example 26]
0.03 | Cc1nc2c(OCc3c(F)cccc3F)cccn2c1C(=O)N[C@@H](CO)CC(C)C [Example 39, 8-[(2,6-Difluorobenzyl)oxy]-N-[(2R)-1-hydroxy-4-methylpentan-2-yl]-2-methylimidazo[1,2-a]-pyridine-3-carboxamide]
0.16 | CC[C@H](CO)NC(=O)c1c(C)nc2c(OCc3c(F)cccc3F)cccn12 [Example 43, 8-[(2,6-Difluorobenzyl)oxy]-N-[(2R)-1-hydroxybutan-2-yl]-2-methylimidazo[1,2-a]pyridine-3-carboxamide]
0.3 | CC[C@H](CO)NC(=O)c1c(C)nc2c(OCc3cccc(F)c3F)cccn12 [Example 44, 8-[(2,3-difluorobenzyl)oxy]-N-[(2R)-1-hydroxybutan-2-yl]-2-methylimidazo[1,2-a]-pyridine-3-carboxamide]
0.65 | CC[C@H](CO)NC(=O)c1c(C)nc2c(OCc3cccc(Cl)c3Cl)cccn12 [Example 45, 8-[(2,3-dichlorobenzyl)oxy]-N-[(2R)-1-hydroxybutan-2-yl]-2-methylimidazo[1,2-a]-pyridine-3-carboxamide]
2.0 | Cc1nc2c(OCc3cccc(Cl)c3Cl)cccn2c1C(=O)NC(CO)CO [Example 49, 8-[(2,3-dichlorobenzyl)oxy]-N-(1,3-dihydroxypropan-2-yl)-2-methylimidazo[1,2-a]-pyridine-3-carboxamide]
5.5 | Cc1nc2c(OCc3ccccc3F)cccn2c1C(=O)NC(CO)CO [Example 51, N-(1,3-dihydroxypropan-2-yl)-8-[(2-fluorobenzyl)oxy]-2-methylimidazo[1,2-a]pyridine-3-carboxamide]
10 | Cc1cccc(COc2cccn3c(C(=O)NC(CO)CO)c(C)nc23)c1Cl [Example 52, 8-[(2-chloro-3-methylbenzyl)oxy]-N-(1,3-dihydroxypropan-2-yl)-2-methylimidazo[1,2-a]-pyridine-3-carboxamide]
10 | Cc1nc2c(OCc3c(Cl)cccc3Cl)cccn2c1C(=O)NC(CO)CO [Example 53, 8-[(2,6-dichlorobenzyl)oxy]-N-(1,3-dihydroxypropan-2-yl)-2-methylimidazo[1,2-a]-pyridine-3-carboxamide]
